Test results taken from patent US7244751B2, “Histone deacetylase inhibitors of novel benzamide derivatives with potent differentiation and anti-proliferation activity” (Shenzhen Chipscreen Biosciences Ltd., priority 2003, dated 2007).

Key:
[1] = tested on: HDAC (extract from HeLa cells containing HDAC activity); assay: HDAC colorimetric activity assay kit (BIOMOL), HeLa cell extract; format: biochemical, human
Method: Briefly, the tested compounds at different concentrations were added to 96-well plates, then mixed with extract from HeLa cells containing HDAC activity provided by the manufacturer. HDAC reactions were initiated by adding substrate. 10 minutes later, the reactions were stopped by addition of Color De Lys Developer. Microplates were read in a plate reader at 405 nm. Inhibition of HDAC activity was calculated following the instructions.

[2] = tested on: U2OS, human osteocarcinoma; assay: Growth inhibition by MTS method, U2OS; format: cell-based; details: 48 hours with compound, read-out: GI50 against U2OS
Method: (§1) Growth inhibition tests were carried out by MTS method. Approximately 72 hours before the viability assay, cells were seeded into 96-well plates at 5-10×10^3 cells/well (according to the growth rate of individual cell lines used). 24 hours later, the tested compounds at different concentrations were added, and the cells were cultured for 48 hours, then added 20 μl/well of CellTiter 96 AQueous One Solution Reagent containing tetrazolium compound (Promega) into each well. MTS was subsequently added to the culture medium. After incubation of the plates for 2 hours at about 37° C., the absorbance at 490 nm was recorded by a 96-well plate reader. Cell viability was calculated by Atreatment/Acontrol×100% (A represents the absorbance recorded at 490 nm). […] All of the compounds were dissolved in DMSO and were added to the culture at a 1:1000 dilution to give a final DMSO concentration of ≦0.1%. All samples were assayed in duplicate, and each experiment was repeated at least three times.

[3] = tested on: HeLa, human cervical carcinoma; assay: Growth inhibition by MTS method, HeLa; format: cell-based; details: 48 hours with compound, read-out: GI50 against HeLa
Method: as §1

[4] = tested on: DU-145, human prostate cancer; assay: Growth inhibition by MTS method, DU-145; format: cell-based; details: 48 hours with compound, read-out: GI50 against DU-145
Method: as §1

[5] = tested on: SMMC-7721, human hepatoma; assay: Growth inhibition by MTS method, SMMC-7721; format: cell-based; details: SMMC-721, 48 hours with compound, read-out: GI50 against SMMC-721
Method: as §1

[6] = tested on: HepG2, human hepatoblastoma; assay: Growth inhibition by MTS method, HepG2; format: cell-based; details: 48 hours with compound, read-out: GI50 against HepG2
Method: as §1

[7] = tested on: 293, human embryonic kidney; assay: Growth inhibition by MTS method, 293; format: cell-based; details: 48 hours with compound, read-out: GI50 against 293
Method: as §1

[8] = tested on: MCF-7, human breast adenocarcinoma; assay: Growth inhibition by MTS method, MCF-7; format: cell-based; details: MCF7, 48 hours with compound, read-out: GI50 against MCF-7
Method: as §1

[9] = tested on: MDA-MB-231, human breast adenocarcinoma; assay: Growth inhibition by MTS method, MDA-MB-231; format: cell-based; details: 48 hours with compound, read-out: GI50 against 231
Method: as §1

H292, human lung cancer = assay: Growth inhibition by MTS method, H292; format: cell-based; details: NCI-H292, 48 hours with compound, read-out: GI50 against H292
Method: as §1

[10] = tested on: LNCaP, human prostate cancer; assay: Growth inhibition by MTS method, LNCaP; format: cell-based; details: 48 hours with compound, read-out: GI50 against LNCaP
Method: as §1

[11] = tested on: SK-N-SH, human neuroblastoma; assay: Growth inhibition by MTS method, SK-N-SH; format: cell-based; details: 48 hours with compound, read-out: GI50 against SK-N-SH
Method: as §1

[12] = tested on: PANC-1, human pancreatic ductal carcinoma; assay: Growth inhibition by MTS method, PANC-1; format: cell-based; details: 48 hours with compound, read-out: GI50 against PANC-1
Method: as §1

[13] = tested on: SK-OV-3, human ovary adenocarcinoma; assay: Growth inhibition by MTS method, SK-OV-3; format: cell-based; details: 48 hours with compound, read-out: GI50 against SK-OV-3
Method: as §1

[14] = tested on: SGC-7901, human gastric adenocarcinoma; assay: Growth inhibition by MTS method, SGC-7901; format: cell-based; details: 48 hours with compound, read-out: GI50 against SGC-7901
Method: as §1

[15] = tested on: Raji, human Burkitts Lymphoma; assay: Growth inhibition by MTS method, Raji; format: cell-based; details: 48 hours with compound, read-out: GI50 against Raji
Method: as §1

[16] = tested on: HL-60, human myloid leukemia; assay: Growth inhibition by MTS method, HL-60; format: cell-based; details: 48 hours with compound, read-out: GI50 against HL-60
Method: as §1

28SC, human macrophage = assay: Growth inhibition by MTS method, 28SC; format: cell-based; details: 48 hours with compound, read-out: GI50 against 28SC
Method: as §1

[17] = tested on: Jurkat, human T cell leukemia; assay: Growth inhibition by MTS method, Jurkat; format: cell-based; details: 48 hours with compound, read-out: GI50 against Jurkat
Method: as §1

| GI50 [2] [µM] | GI50 [3] [µM] | GI50 [4] [µM] | GI50 [5] [µM] | GI50 [6] [µM] | GI50 [8] [µM] | GI50 [9] [µM] | GI50 (H292, human lung cancer) [µM] | GI50 [10] [µM] | GI50 [11] [µM] | GI50 [12] [µM] | GI50 [13] [µM] | GI50 [14] [µM] | GI50 [15] [µM] | GI50 [16] [µM] | GI50 [17] [µM] | SMILES | GI50 [7] [µM] | GI50 (28SC, human macrophage) [µM] | further results |
| --- | --- | --- | --- | --- | --- | --- | --- | --- | --- | --- | --- | --- | --- | --- | --- | --- | --- | --- | --- |
| 2.5 | 50 | 50 | 50 | 3.2 | 5 | 7.9 | 50 | 10 | 50 | 5 | 50 | 50 | 2 | 0.5 | 1 | Nc1ccccc1NC(=O)c1ccc(CNc2ccc(F)cc2)cc1 [CS02100019, N-(2-aminophenyl)-4-[N-(4-fluorophenyl)aminomethyl]benzamide] | 25 | 2 | IC50 ([1]; HDAC activity, HeLa extract): > 50 µM; % of inhibition of HDAC activity ([1]; concentration 1 μM): 11.3%; % of inhibition of HDAC activity ([1]; concentration 5 μM): 24.9%; % of inhibition of HDAC activity ([1]; concentration 10 μM): 28.4%; % of inhibition of HDAC activity ([1]; concentration 50 μM): 29.8% |
| 2 | 40 | 25 | 16 | 4 | 5 | 7.9 | 50 | 4 | 50 | 6.3 | 50 | 50 | 4 | 0.4 | 1.5 | Nc1cc(F)ccc1NC(=O)c1ccc(CNC(=O)/C=C/c2cccnc2)cc1 [CS02100055, N-(2-amino-4-fluorophenyl)-4-[N-(Pyridin-3-ylacryloyl)aminomethyl]benzamide] | 50 | 5.8 |  |

| SMILES | GI50 [2] [µM] | GI50 [3] [µM] | GI50 [4] [µM] | GI50 [5] [µM] | GI50 [6] [µM] | GI50 [8] [µM] | GI50 [9] [µM] | GI50 (H292, human lung cancer) [µM] | GI50 [10] [µM] | GI50 [11] [µM] | GI50 [12] [µM] | GI50 [13] [µM] | GI50 [14] [µM] | GI50 [15] [µM] | GI50 [16] [µM] | GI50 [17] [µM] | GI50 [7] [µM] | GI50 (28SC, human macrophage) [µM] | further results |
| --- | --- | --- | --- | --- | --- | --- | --- | --- | --- | --- | --- | --- | --- | --- | --- | --- | --- | --- | --- |
| Nc1ccccc1NC(=O)c1ccc(CNC(=O)OCc2cccnc2)cc1 [MS-275, N-(2-aminophenyl)-4-[N-(pyridin-3-ylmethoxycarbonyl)aminomethyl]benzamide, reference compound] | 1 | 25 | 13 | 20 | 3.2 | 6.3 | 5 | 16 | 2.5 | 50 | 5 | 50 | 50 | 6.3 | 0.32 | 1.6 | 16 | 4 |  |
